Data: paper PMC5031696, “Synthesis, Biodistribution and In vitro Evaluation of Brain Permeable High Affinity Type 2 Cannabinoid Receptor Agonists [^11C]MA2 and [^18F]MA3” (Frontiers in Neuroscience, 2016)

How the values were obtained:
hCB1 [1] = biological target: T1, hCB1 (Homo sapiens, UniProt P21554); test: functional cAMP assay, hCB1 versus hCB2; assay type: cell-based; conditions: cAMP assays
T1 construct: host or cells: CHO-K1 beta-arrestin cells
Protocol: (§1) CHO-K1 beta-arrestin cells (DiscoveRx, Fremont, CA) expressing hCB2, mouse CB2 (mCB2), and human CB1 (hCB1) were cultured in F-12 Nutrient Mixture (HAM) supplemented with 10% fetal bovine serum (FBS), 300 μg/mL hygromycin and 800 μg/mL geneticin (G418). Cells were incubated in a humidified atmosphere at 37°C with 5% CO2.
(§2) cAMP was measured using cAMP-Nano-TRF detection kit (Roche Diagnostics, Penzberg, Germany). Cells were seeded 17–24 h prior to the experiment 3 × 10^4 cells per well in a black 96-well plate with flat clear bottom (Corning, Wiesbaden, Germany) in growth medium and incubated in 5% CO2 at 37°C in a humidified incubator. The growth medium was exchanged with Krebs Ringer bicarbonate buffer with 1 mmol/L 3-isobutyl-1-methylxanthine (IBMX), 0.1% fatty acid-free bovine serum albumin (BSA) and incubated at 30°C for 60 min. Agonist was added to a final assay volume of 100 μL and the mixture was incubated for 30 min at 30°C. The assay was stopped by the addition of 50 μL 3x lysis reagent and shaken for 2 h at room temperature. The time-resolved energy transfer was measured using an LF502 Nanoscan FLT (IOM, Berlin, Germany), equipped with a laser as excitation source. cAMP content was determined from the function of a standard curve spanning from 10 to 0.13 nmol/L cAMP.

mCB2 [2] = biological target: T2, mCB2 (Mus musculus, UniProt P47936); test: radioligand binding assay with [^3H]CP55940, mCB2; conditions: competition with [^3H]CP55940; read-out: mCB2 Ki
T2 construct: host or cells: CHO-K1 beta-arrestin cells
T2 sequence (P47936 whole entry): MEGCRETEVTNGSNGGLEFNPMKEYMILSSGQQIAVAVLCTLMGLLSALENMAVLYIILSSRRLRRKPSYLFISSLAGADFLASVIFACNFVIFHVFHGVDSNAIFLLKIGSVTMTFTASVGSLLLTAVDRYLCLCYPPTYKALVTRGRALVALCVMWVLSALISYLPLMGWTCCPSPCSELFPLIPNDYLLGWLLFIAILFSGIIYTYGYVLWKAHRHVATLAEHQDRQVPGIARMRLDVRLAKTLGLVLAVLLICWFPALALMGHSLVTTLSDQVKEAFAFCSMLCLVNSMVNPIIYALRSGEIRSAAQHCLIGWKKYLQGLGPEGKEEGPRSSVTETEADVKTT
Protocol: as §1
(§3) Stably transfected cells were treated for 24 h with 5 mM butyrate in growth medium before harvesting, followed by homogenization in 15 mmol/L Hepes, 0.3 mmol/L EDTA, 1 mmol/L EGTA, 2 mmol/L MgCl2, complete EDTA-free protease inhibitor (Roche Applied Science, Rotkreuz, Switzerland), pH 7.4 using a glass potter and centrifugation at 47,800 g at 4°C for 30 min. The pellet was then rehomogenized twice in the same buffer and centrifuged (47,800 g, 4°C, 30 min). The final pellet was then resuspended in 75 mmol/L Tris, 0.3 mmol/L EDTA, 1 mmol/L EGTA, 12.5 mmol/L MgCl2, 250 mmol/L sucrose, pH 7.4 at a protein concentration of 1 to 3 mg/mL, aliquoted, frozen on dry ice and stored at −80°C. Saturation binding was performed with 0.05 to 2.6 nM [^3H]CP55940 (Perkin Elmer) and 1.0 μg of membrane protein. CP55940 (10 μM) was used to define non-specific binding. More than 95% of the total binding signal was specific. Assay buffer consisted of 50 mmol/L Tris-HCl, 5 mmol/L MgCl2, 2.5 mmol/L EGTA, and 0.1% fatty acid-free BSA, pH 7.4. Assays were initiated by addition of membranes in a final volume of 250 μL/well. Mixtures were incubated for 3 h at room temperature and then vacuum filtered and rinsed with wash buffer (50 mmol/L Tris-HCl, 5 mmol/L MgCl2, 2.5 mmol/L EGTA, and 0.5% fatty acid-free BSA, pH 7.4) on a Filtermate cell harvester through Packard GF/B filters presoaked in 0.3% polyethylenimine.
(§4) For competition binding, membrane preparations were incubated with 0.3 nM [^3H]CP55940 in the presence or absence of increasing concentrations of ligands for 60 min at 30°C in a final volume of 0.2 mL of 50 mmol/L Tris-HCl, 5 mmol/L MgCl2, 2.5 mmol/L EGTA, 0.1% fatty acid-free BSA, and 1% DMSO, pH 7.4, buffer, gently shaking. Non-specific binding was defined with 10 μM CP55940. All binding reactions were terminated by vacuum filtration onto 0.5% polyethylenimine presoaked GF/B filter plates (Packard) followed by seven brief washes with 2 mL of ice-cold binding buffer containing 0.5% fatty acid-free BSA. Plates were dried at 50°C for 1 h and liquid scintillation counting was used to determine bound radiolabel. IC50 values and Hill slopes were determined by a four parameter logistic model using ActivityBase (ID Business Solution, Guilford, UK). pKi values were determined by the generalized Cheng-Prusoff equation (Yung-Chi and Prusoff, [1973]).

hCB1 [3] = biological target: T1, hCB1; test: radioligand binding assay with [^3H]CP55940, hCB1; conditions: for Ki: competition with [^3H]CP55940, read-out: hCB1 Ki; for Ki ratio hCB1/hCB2: selectivity
Protocol: as §1, §3, §4

hCB2 [4] = biological target: T3, hCB2 (Homo sapiens, UniProt P34972); test: functional cAMP assay, hCB2; assay type: cell-based; conditions: for hCB2 cAMP % eff (efficacy) / EC50: CHO-K1 cells expressing hCB2; for EC50: read-out: hCB2 cAMP EC50; for functional behaviour in cAMP assay: hCB2
T3 construct: host or cells: CHO-K1 beta-arrestin cells
T3 sequence (P34972 whole entry): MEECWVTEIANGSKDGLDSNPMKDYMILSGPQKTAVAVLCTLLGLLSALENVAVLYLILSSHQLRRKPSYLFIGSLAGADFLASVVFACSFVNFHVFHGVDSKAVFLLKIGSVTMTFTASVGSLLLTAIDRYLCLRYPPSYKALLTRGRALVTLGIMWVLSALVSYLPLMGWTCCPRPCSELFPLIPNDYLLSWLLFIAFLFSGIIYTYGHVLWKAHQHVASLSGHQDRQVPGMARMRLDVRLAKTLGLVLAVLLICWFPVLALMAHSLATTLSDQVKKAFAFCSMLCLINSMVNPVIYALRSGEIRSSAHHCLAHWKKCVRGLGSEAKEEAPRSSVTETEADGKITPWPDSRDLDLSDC
Protocol: as §1, §2

hCB2 [5] = biological target: T3, hCB2; test: radioligand binding assay with [^3H]CP55940, hCB2; conditions: for Ki: competition with [^3H]CP55940, read-out: hCB2 Ki
Protocol: as §1, §3, §4

mCB2 [6] = biological target: T2, mCB2; test: functional cAMP assay, mCB2; assay type: cell-based; conditions: CHO-K1 cells expressing mCB2; for EC50: read-out: mCB2 cAMP EC50
Protocol: as §1, §2

T1 sequence (P21554 whole entry): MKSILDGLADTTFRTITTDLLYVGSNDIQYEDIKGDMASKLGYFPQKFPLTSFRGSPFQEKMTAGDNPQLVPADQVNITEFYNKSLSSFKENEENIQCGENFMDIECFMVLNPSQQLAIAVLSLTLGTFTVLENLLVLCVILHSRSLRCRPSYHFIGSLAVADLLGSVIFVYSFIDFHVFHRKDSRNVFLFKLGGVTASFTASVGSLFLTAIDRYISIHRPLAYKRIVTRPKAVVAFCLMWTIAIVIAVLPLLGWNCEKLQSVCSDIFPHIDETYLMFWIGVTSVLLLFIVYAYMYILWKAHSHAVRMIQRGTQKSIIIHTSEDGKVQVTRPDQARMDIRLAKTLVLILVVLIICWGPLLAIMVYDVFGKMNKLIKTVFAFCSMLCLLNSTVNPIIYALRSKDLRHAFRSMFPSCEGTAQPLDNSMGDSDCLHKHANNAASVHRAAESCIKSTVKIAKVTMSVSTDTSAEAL

Structure (SMILES) | EC50 ratio hCB1/hCB2 (hCB1 [1]) | Ki (mCB2 [2]) [nM] | Ki (hCB1 [3]) [nM] | Ki ratio hCB1/hCB2 (hCB1 [3]) | hCB2 cAMP % eff (efficacy) (hCB2 [4]) [%] | EC50 (hCB2 [4]) [nM] | functional behaviour in cAMP assay (hCB2 [4]) | Ki (hCB2 [5]) [nM] | mCB2 cAMP % eff (efficacy) (mCB2 [6]) [%] | EC50 (mCB2 [6]) [nM] | species difference in binding affinity (hCB2 [5]; hCB2 versus mCB2) | times higher hCB2 affinity compared to 12 (hCB2 [5]; Ki comparison) | times higher hCB2 affinity compared to MA2 (hCB2 [5]; Ki comparison) | times higher hCB2 affinity compared to NE40 (hCB2 [5]; Ki comparison)
Fc1ccc(-c2noc(CCCNc3cnc4ccc(OC(F)(F)F)cc4c3)n2)c(Cl)c1 [Compound 12, reference compound] | 1300 | 4.6 | 568 | 202 | 100 | 0.15 | agonists | 2.8 | 100 | 0.18 |  |  |  | 
CCCCOc1c(OC)ccc2cc(C(=O)NC3CCCCC3)c(=O)[nH]c12 [NE40, reference compound] | > 1250 | 2 | 1040 | 241 | −178 | 8 | inverse agonist | 4 | −128 | 11 | no species difference |  |  | 
FCCOc1ccc2ncc(NCCCc3nc(-c4ccc(F)cc4Cl)no3)cc2c1 [MA3, 6-(2-Fluoroethoxy)-N-(3-(3-(2-chloro-4-fluorophenyl)-1,2,4-oxadiazol-5-yl)propyl)quinolin-3-amine] | 563 | 2.6 | 102 | 127 | 102 | 0.13 | agonists | 0.8 | 101 | 0.09 |  | about 4 | about 100 | 5
